SMILES strings stand for the structures. Read-outs that look alike come from different tables or passages of the source.

This note sets out measurements from patent publication US6897215B1, “Compounds having 5-HT6 receptor antagonist activity” (NPS Allelix Corp., priority 1999, dated 2005).

The target in one assay is T1, human 5-HT6 receptors (Homo sapiens, UniProt P50406).
T1 construct: expressed in transfected cells; host or cells: HEK293 (stably transfected, G418 selection)
The assay is described as follows: functional adenylyl cyclase assay: cAMP accumulation in stably transfected HEK293 cells. To be noted: 1 uM serotonin. It is filed as cell-based.

Assay [1] relates to a number of other receptors including other serotonin receptors such as 5-HT1A and 5-HT7. Nature of the assay: selectivity over other receptors. To be noted: 5-HT6 versus other receptors incl. 5-HT1A and 5-HT7.
The target in assay [2] is T2, human 5-HT6 subtype of receptor (Homo sapiens, UniProt P50406). To be noted: read-out: 5-HT6 receptor affinity (Ki); radioligand 3H-LSD, 60 minute incubation at 37° C.
Assay [3] concerns the target T2, human 5-HT6 subtype of receptor. The assay is described as follows: biochemical.

T2 sequence (P50406 whole entry): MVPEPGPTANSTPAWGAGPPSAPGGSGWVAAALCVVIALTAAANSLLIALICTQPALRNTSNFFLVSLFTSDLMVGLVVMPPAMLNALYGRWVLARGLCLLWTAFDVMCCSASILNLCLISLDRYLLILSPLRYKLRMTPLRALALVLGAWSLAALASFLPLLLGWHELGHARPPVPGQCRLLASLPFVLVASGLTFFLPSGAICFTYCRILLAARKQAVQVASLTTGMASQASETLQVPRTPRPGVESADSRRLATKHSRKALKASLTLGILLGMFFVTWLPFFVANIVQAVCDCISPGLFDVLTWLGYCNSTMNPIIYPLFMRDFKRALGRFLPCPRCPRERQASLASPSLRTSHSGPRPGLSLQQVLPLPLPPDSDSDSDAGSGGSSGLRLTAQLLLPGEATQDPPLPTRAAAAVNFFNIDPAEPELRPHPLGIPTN
T1 sequence (P50406 whole entry): as above
Description for human 5-HT6 receptors: The antagonist property of the compounds at the human 5-HT6 receptors was determined by testing their effect on cAMP accumulation in stably transfected HEK293 cells. […] A compound that is an agonist will show an increase in cAMP production and a compound that is an antagonist will block the agonist effect Human 5-HT6 receptors were cloned and stably expressed in HEK293 cells. These cells were plated in 6 well plates in DMEM/F12 media with 10% fetal calf serum (FCS) and 500 ug/mL G418 and incubated at 37° C. in a CO2 incubator. The cells were allowed to grow to about 70% confluence before initiation of the experiment. On the day of the experiment, the culture media was removed, and the cells were washed once with serum free medium (SFM). Two mL of SFM+IBMX media was added and incubated at 37° C. for 10 min. […] The tubes were centrifuged for 5 min at 4° C., and the supernatants were stored at 4° C. until assayed. cAMP content was determined by EIA (enzyme-immunoassay) using the Amersham Biotrak cAMP EIA kit (Amersham RPN 225). […] Briefly, cAMP is determined by the competition between unlabeled cAMP and a fixed quantity of peroxidase-labelled cAMP for the binding sites on anti-cAMP antibody. […] The reaction is stopped by the addition of 100 uL 1.0 M sulphuric acid and the resultant color read by a microtitre plate spectrophotometer at 450 nM within 30 minutes.

In the case of `O=S(=O)(c1cccc2ccccc12)n1ccc2ccc(N3CCN4CCCC4C3)cc21` (stereo not drawn) [Example 4a, 6-[6,5-Bicyclopiperazinyl]-1-[1-naphthylenesulphonyl]indole], on human 5-HT6 receptors, half-maximal inhibition (IC50) required 7.2 nM and the “antagonist property at the 5-HT6 receptor” value is reported as “competitive antagonist”. The “selectivity over other receptors” value in assay [1] is given as “good selectivity”. Moreover, the Ki in assay [2] came out at 0.2 nM.

Regarding `O=S(=O)(c1cccc2ccccc12)n1ccc2ccc(C3CCN4CCCC4C3)cc21` [Example 5F (12), 6-[(7-R,S)(8a-R,S)-Octahydroindolizin-7-yl]-1-naphthylsulfonyl-indole], the Ki in assay [2] came to 0.8 nM.

`O=S(=O)(c1cccc2ccccc12)n1ccc2ccc(C3CCN4CCCC4C3)cc21` (single isomer, unassigned) [Example 5F (13)] returned a Ki in assay [3] of 0.7 nM.
